Results from patent US11230530B2, “Human plasma kallikrein inhibitors” (BioCryst Pharmaceuticals, Inc., priority 2014, dated 2022).

Assays:
[1] = system: patients with hereditary angioedema (HAE); conditions: in vivo; cited from earlier work
human plasma kallikrein = human plasma kallikrein (Homo sapiens (Human), UniProt P03952); experiment: Plasma kallikrein activity assay (chromogenic substrate S2302); format: biochemical; conditions: 2 nM kallikrein, 80 μM S2302, 30° C., pH 7.8; Cheng-Prusoff; reported as ranges
Chain of human plasma kallikrein (P03952 whole entry, looked up): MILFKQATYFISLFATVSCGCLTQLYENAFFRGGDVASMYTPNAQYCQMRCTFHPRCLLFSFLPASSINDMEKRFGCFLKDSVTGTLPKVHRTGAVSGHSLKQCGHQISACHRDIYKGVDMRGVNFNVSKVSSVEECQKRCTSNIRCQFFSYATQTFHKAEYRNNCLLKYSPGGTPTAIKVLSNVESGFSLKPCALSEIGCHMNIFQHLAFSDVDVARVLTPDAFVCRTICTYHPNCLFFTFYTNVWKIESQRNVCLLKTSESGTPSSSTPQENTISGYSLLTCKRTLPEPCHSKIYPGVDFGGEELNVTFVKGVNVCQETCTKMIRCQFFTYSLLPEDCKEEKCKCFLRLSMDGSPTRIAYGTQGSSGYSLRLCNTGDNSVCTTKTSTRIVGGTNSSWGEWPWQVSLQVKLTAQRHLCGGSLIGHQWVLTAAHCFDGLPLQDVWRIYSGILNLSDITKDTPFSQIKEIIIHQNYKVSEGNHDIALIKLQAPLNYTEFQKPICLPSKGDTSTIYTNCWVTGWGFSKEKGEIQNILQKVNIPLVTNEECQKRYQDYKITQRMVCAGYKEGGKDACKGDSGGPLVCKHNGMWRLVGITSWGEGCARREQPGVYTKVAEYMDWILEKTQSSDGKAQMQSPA
Chain of human plasma kallikrein (P03952 whole entry partner, looked up): as the sequence (P03952 whole entry, looked up) above
Procedure: Plasma kallikrein activity assay. The effect of compounds of the invention on human plasma kallikrein activity was determined using the chromogenic substrates (DiaPharma Group, Inc., West Chester, Ohio, USA). In these experiments, 2 nM kallikrein (Enzyme Research Laboratories, South Bend, Ind., USA) was incubated with 80 μM S2302 (H-D-Pro-Phe-Arg-p-nitroaniline) in the absence or presence of increasing concentrations of compounds of the invention in a final volume of 200 μL Tris-HCl buffer (200 mM NaCl; 2.5 mM CaCl2; 50 mM Tris-HCl, pH 7.8).
Data were analyzed using SigmaPlot software (Systat Software, Inc., San Jose, Calif., USA) (Four Parameter Logistic Curve).

SMILES | treating HAE [1] | Ki (human plasma kallikrein) [nM]
NC(N)=NCCC[C@@H](N)C(=O)N[C@@H](CCCN=C(N)N)C(=O)N1CCC[C@H]1C(=O)N1C[C@H](O)C[C@H]1C(=O)NCC(=O)N[C@@H](Cc1cccs1)C(=O)N[C@@H](CO)C(=O)N1Cc2ccccc2C[C@@H]1C(=O)N1[C@H](C(=O)N[C@@H](CCCN=C(N)N)C(=O)O)C[C@@H]2CCCC[C@@H]21 [Icatibant] | effective | –
Cc1cc(C(=O)Nc2cccc(C(NCC3CC3)c3cc(O)ccc3O)c2)n(-c2cccc(CN)c2)n1 (centres unmarked) [Compound 146g, 1-(3-(Aminomethyl)phenyl)-N-(3-((cyclopropylmethylamino)(2,5-dihydroxyphenyl)methyl)phenyl)-3-methyl-1H-pyrazole-5-carboxamide] | – | 0.1 to 50
